Laboratory results taken from article PMC4774911, “Biochemical Screening of Five Protein Kinases from Plasmodium falciparum against 14,000 Cell-Active Compounds” (PLoS ONE, 2016).
Values joined by “and” are separate entries in the source; they are usually repeats but may differ in a detail not shown here. Identical values can stand only once.

Legend:
Assay in all cases: biochemical
Parameters in all cases: endogenous in cells; host or cells: K562 cell extract; species or system K562 (extract); replicate k of n = 2 (each experiment ID is one independent experiment; two experiment IDs per compound)
Settings in all cases: read-out: KDapp
JAK2 = JAK2 (Homo sapiens, UniProt O60674)
Sequence of JAK2 (O60674 whole entry): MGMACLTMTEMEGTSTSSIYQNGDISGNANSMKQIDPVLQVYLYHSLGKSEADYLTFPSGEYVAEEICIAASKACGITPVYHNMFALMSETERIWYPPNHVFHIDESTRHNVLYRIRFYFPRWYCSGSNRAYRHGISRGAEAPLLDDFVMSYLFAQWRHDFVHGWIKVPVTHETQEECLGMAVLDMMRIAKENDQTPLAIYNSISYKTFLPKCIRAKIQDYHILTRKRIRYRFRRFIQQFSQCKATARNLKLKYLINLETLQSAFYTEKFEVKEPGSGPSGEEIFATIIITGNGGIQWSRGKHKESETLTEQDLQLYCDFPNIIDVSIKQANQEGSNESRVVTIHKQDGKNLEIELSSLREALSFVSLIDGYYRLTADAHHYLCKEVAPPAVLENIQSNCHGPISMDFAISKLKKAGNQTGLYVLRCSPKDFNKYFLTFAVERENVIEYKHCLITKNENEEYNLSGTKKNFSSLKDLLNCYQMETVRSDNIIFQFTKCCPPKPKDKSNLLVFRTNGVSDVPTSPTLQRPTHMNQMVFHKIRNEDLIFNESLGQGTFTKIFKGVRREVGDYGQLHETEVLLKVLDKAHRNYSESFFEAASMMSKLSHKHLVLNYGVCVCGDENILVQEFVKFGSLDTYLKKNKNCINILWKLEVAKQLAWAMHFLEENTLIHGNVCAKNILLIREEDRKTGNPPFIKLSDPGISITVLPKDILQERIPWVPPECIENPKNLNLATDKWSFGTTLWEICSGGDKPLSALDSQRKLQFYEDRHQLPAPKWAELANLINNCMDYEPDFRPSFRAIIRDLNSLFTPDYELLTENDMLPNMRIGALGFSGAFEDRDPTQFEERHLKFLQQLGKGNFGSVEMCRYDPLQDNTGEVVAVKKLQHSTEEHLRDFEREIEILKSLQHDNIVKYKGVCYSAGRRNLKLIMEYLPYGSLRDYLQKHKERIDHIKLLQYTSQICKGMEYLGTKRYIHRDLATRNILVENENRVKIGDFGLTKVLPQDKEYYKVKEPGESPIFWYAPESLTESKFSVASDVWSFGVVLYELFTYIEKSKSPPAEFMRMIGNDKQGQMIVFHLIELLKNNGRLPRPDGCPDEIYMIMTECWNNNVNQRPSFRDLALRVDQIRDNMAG

PLK4 = target: T1, PLK4 (Homo sapiens, UniProt O00444)
T1 sequence (O00444 1-970): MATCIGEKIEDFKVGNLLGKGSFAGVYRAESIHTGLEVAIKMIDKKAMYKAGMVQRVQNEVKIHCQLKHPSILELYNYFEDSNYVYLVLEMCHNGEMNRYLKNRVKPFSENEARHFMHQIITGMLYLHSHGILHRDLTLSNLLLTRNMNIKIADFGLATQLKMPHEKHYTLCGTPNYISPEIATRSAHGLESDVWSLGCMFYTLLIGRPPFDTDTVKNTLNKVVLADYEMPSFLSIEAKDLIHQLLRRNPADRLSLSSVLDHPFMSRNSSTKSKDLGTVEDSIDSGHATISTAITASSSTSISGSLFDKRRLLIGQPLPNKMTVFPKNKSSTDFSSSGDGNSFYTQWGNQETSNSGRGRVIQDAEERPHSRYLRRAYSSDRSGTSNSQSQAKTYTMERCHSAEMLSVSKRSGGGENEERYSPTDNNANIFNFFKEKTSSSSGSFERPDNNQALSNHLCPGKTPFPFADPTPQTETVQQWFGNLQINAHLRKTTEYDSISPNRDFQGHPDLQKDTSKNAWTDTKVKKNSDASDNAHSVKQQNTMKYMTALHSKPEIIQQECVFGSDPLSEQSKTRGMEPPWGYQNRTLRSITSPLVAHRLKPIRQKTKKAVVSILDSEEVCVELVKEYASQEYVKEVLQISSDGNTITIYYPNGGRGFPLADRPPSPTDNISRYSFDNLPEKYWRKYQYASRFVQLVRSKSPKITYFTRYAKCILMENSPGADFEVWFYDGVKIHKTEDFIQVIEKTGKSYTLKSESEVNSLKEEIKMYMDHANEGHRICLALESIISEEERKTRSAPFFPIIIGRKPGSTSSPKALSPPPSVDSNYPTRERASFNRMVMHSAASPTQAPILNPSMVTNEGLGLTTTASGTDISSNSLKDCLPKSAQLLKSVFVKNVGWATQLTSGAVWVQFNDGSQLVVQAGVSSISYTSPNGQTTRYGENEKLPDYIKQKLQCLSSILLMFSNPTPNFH

CDK6 = CDK6 (Homo sapiens, UniProt Q00534)
Sequence of CDK6 (Q00534 whole entry): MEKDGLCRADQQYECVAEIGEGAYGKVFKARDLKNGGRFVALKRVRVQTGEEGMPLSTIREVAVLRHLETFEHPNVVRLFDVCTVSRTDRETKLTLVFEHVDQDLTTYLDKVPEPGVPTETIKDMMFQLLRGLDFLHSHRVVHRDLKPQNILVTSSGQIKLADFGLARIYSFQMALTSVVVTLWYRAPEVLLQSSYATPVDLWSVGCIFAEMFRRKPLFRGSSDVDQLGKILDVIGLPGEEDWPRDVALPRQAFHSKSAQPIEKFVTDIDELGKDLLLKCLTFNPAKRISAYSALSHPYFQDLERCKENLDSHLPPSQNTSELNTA

PIP4K2C = target: T2, PIP4K2C (Homo sapiens, UniProt Q8TBX8)
T2 sequence (Q8TBX8 1-421): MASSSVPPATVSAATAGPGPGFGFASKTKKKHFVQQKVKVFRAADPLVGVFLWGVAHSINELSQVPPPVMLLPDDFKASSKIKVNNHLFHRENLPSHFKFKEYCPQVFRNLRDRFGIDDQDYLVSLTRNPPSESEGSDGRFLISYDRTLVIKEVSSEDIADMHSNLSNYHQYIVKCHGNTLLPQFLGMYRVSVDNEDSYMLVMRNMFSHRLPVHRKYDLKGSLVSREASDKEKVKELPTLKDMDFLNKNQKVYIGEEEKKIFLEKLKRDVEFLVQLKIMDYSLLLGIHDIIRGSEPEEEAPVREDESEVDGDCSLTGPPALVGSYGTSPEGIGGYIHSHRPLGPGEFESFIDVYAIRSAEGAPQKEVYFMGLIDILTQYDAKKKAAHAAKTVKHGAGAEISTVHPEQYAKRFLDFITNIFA

PRKX = target: T3, PRKX (Homo sapiens, UniProt P51817)
T3 sequence (P51817 1-358): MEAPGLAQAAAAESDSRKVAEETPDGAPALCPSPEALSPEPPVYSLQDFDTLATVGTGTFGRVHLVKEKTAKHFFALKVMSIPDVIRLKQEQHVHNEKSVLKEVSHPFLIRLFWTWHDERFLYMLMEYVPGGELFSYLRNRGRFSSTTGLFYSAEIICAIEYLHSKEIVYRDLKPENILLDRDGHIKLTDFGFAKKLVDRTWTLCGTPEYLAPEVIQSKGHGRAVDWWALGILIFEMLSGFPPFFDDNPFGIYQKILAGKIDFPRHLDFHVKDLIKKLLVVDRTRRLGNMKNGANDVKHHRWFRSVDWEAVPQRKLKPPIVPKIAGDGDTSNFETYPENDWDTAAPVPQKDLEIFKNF

MAPK8 = MAPK8 (Homo sapiens, UniProt P45983)
Sequence of MAPK8 (P45983 whole entry): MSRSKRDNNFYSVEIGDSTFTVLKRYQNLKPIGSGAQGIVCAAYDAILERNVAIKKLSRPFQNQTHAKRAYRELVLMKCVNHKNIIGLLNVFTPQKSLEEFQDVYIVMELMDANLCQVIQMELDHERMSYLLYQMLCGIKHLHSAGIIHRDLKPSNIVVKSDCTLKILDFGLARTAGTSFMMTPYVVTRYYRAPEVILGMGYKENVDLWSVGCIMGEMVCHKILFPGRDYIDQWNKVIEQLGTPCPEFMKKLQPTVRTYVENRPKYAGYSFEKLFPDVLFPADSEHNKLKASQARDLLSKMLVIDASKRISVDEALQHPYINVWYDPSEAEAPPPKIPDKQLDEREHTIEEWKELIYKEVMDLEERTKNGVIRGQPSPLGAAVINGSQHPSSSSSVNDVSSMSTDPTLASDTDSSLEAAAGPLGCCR

MAPK6 = MAPK6 (Homo sapiens, UniProt Q16659)
Sequence of MAPK6 (Q16659 whole entry): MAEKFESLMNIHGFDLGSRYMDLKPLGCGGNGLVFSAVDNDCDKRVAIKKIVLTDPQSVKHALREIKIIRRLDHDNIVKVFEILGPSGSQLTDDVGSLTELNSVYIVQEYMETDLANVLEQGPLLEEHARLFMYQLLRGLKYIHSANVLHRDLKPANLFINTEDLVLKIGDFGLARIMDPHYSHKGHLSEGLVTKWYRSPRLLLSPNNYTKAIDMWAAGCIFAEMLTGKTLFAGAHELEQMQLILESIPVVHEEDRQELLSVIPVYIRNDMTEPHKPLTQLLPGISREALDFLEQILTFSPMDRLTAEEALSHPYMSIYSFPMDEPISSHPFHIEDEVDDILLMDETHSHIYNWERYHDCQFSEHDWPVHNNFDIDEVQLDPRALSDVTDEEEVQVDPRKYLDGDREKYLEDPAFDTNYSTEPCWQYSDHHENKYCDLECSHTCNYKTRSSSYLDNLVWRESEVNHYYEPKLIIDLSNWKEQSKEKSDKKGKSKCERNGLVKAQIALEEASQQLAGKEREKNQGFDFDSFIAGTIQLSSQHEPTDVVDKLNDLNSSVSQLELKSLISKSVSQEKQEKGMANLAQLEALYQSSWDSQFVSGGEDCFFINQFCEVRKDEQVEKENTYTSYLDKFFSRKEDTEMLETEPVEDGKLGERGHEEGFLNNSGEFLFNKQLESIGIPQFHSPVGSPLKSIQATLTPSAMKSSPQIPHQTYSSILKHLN

TAOK1 = TAOK1 (Homo sapiens, UniProt Q7L7X3)
Sequence of TAOK1 (Q7L7X3 whole entry): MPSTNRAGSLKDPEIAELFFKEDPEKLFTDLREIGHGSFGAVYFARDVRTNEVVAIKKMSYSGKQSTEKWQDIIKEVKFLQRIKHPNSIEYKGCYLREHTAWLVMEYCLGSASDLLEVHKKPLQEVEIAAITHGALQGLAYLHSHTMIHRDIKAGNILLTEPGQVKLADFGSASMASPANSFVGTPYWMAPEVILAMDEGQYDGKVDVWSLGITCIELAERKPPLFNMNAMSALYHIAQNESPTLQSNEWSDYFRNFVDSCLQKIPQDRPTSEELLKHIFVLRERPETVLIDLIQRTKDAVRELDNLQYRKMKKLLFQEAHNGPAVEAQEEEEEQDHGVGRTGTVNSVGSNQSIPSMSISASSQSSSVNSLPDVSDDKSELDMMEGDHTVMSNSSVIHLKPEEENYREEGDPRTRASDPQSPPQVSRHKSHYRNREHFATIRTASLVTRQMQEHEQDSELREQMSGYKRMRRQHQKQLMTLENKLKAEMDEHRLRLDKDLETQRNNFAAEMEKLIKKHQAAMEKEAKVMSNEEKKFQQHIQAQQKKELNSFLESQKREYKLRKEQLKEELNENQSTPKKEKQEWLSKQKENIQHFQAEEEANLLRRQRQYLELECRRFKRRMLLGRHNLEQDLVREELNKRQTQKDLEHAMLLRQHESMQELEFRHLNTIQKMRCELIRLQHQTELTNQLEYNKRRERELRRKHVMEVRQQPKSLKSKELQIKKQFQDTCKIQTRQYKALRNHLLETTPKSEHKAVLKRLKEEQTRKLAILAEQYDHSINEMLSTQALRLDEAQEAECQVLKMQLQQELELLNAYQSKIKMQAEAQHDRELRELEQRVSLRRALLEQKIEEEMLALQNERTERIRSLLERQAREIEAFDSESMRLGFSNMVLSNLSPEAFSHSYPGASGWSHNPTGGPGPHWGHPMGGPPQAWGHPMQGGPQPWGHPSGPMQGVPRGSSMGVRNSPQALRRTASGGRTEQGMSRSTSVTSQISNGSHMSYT

## CN1CCN(c2ccc(Nc3ncc(C#N)c(Nc4ccccc4C(N)=O)n3)cc2)CC1.Cl [TCMDC-134116]
JAK2
  Kd: 285 nM and 185 nM
PLK4
  Kd: 53.9 nM and 69.2 nM
CDK6
  Kd: 133 nM and 150 nM
PIP4K2C
  Kd: 691 nM and 713 nM
PRKX
  Kd: 1030 nM
MAPK8
  Kd: 363 nM and 1230 nM

## CN(C)CC(O)COc1ccc(Nc2ncc([N+](=O)[O-])c(Nc3ccccc3O)n2)cc1.O=C(O)C(F)(F)F (centres unmarked) [TCMDC-141399]
MAPK6
  Kd: 248 nM
TAOK1
  Kd: 4300 nM
